Read-outs that look alike come from different tables or passages of the source.
Experiments:
[1] = Contrast-enhanced liver CT scans of swine in fat-equivalent encasements, multi-reader image quality assessment; format: in vivo; conditions: swine CT in adipose-equivalent encasements, relative to TaCZ, FIG. 6
Method: The scans were performed one day to one week apart, and the scan sequence was randomized. During scanning, the pigs were encased in plastic fat-equivalent encasements to emulate a range of large patient sizes. Scans were performed in the pigs' livers at several time points from 30 to 300 seconds after injection. Image quality at each time point was graded by radiologists using predefined criteria such as image contrast in specified vessels.
In FIG. 6, images 220 on the left were acquired using a conventional iodinated contrast agent, iopromide, while images 220 on the right were acquired using the TaCZ nanoparticle contrast agent described above. Vertically, the images are arranged based on patient size.
In FIG. 7, the results of the multi-reader assessment are provided in graphical form.

[2] = Pharmacokinetic modeling of active element (iodine or tantalum) concentration in pig blood/plasma after contrast agent injection; format: in vivo; conditions: plasma, other: injection
Description: Given this illustration of endothelial permeability, it may be appreciated that, immediately after administration, small-molecule contrast agents begin to distribute from the blood pool into interstitial fluid. Due to this “distribution phase”, the concentration of the contrast agent in the blood pool becomes immediately diluted by a factor of two or more in the first minutes after injection. This is illustrated in FIG. 3 where the concentration of the contrast agent iopromide in pig plasma is illustrated as a function of time, with both a distribution phase and elimination phase being evident.
This distribution occurs at a relatively fast rate, with a half-life (T½a) on the order of minutes and is denoted as the distribution phase in FIG. 3. […] Therefore, the concentration of the molecule in the blood would decrease approximately four fold in much less than 10 minutes due to this initial distribution process alone. However, the drug is simultaneously cleared from the blood by the kidneys at a slower rate, with a T½ on the order of 1-2 hours (denoted as the elimination phase in FIG. 3), resulting in an additional lowering of the concentration in the blood.
In a separate analysis, PK modeling was obtained by analyzing the concentration of the active element (iodine or tantalum) in blood samples taken from 2 to 240 minutes after contrast agent injection. […]

Which “image contrast enhancement as patient size (and X-ray energy) increases” value [1] does the source give for `COCC(=O)Nc1c(I)c(C(=O)NCC(O)CO)c(I)c(C(=O)N(C)CC(O)CO)c1I` (stereo not drawn) [iopromide] here?
Its value is “decreases”.

And the half-life ([2]; FIG. 3, read-out: distribution-phase half-life (T½a) in plasma)?
Its half-life is under 0.0833 h.

What about the half-life ([2]; cleared from the blood by the kidneys, FIG. 3, read-out: clearance half-life T½ (elimination phase)) of the same molecule?
The half-life was 1 to 2 h.

— patent US20190001002A1, “DRUG DESIGN FOR APPLICATION-DEPENDENT PAYLOAD, CONTROLLED PHARMACOKINETIC DISTRIBUTION, AND RENAL CLEARANCE” (General Electric Company, priority 2017, published 2019)
